Measurements from patent US10316017B2, “COT modulators and methods of use thereof” (Gilead Sciences, Inc., priority 2015, dated 2019).
pEC50, pIC50: −log10 of the molar value.

Experiments:
[1] = system: TNFα production in LPS-stimulated human monocytes; test: Cot Monocyte TNFα Cell Based Assay; details: Homo sapiens, Monocyte, TNFα in LPS-stimulated human monocytes; read-out: EC50 TNF
Procedure, shortened: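 TNFα release quantified by two-antibody TR-FRET, normalised to unstimulated (0%) and LPS-stimulated (100%) wells. Cells got a 1 h compound exposure at 37° C in 0.5% DMSO before 4 h challenge with 50 pg/ml LPS, at 5,000 cells/well.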

[2] = target: T1, human Cot catalytic domain (30-397 amino acids) (Homo sapiens, UniProt P41279); test: High Throughput Cot Biochemical Assay (KinEASE TR-FRET); details: Cot biochemical HTRF (KinEASE TR-FRET) assay; read-out: IC50 HTRF
T1 construct: Purified recombinant human Cot catalytic domain (30-397 amino acids) was purchased from Cama Biosciences; purchased Cama Biosciences (so in the source)
Procedure, shortened: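 TR-FRET (KinEASE) read-out: Eu-labelled phospho-specific antibody binds XL665-tagged STK3 peptide (1 μM) phosphorylated by 5 nM human Cot kinase domain (residues 30-397). Reaction at 400 μM ATP, pH 7.0 MOPS buffer with 10 mM MgOAc, 1 mM DTT and 0.1% DMSO.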

T1 sequence (P41279 30-397): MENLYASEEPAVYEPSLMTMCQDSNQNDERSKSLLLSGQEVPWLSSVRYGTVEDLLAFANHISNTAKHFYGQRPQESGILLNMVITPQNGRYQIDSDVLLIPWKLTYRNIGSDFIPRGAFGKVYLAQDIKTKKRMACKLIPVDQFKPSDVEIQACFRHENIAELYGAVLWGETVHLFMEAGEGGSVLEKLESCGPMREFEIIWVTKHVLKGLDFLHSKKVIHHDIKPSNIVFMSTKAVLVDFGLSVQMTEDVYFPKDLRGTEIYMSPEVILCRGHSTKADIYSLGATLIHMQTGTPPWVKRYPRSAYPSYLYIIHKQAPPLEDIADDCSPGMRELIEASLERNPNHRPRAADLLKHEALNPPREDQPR

pEC50 [1] | pIC50 [2] | Structure (SMILES)
5.92 | 7.03 | N#Cc1cnc2c(Cl)cc(N[C@@H](c3ccccc3)c3cn(CC4(N5CCCC5)COC4)nn3)cc2c1Nc1ccc(F)c(Cl)c1 [Example 544]
7.06 | 8.52 | N#Cc1cnc2c(Cl)cc(N[C@@H](c3ccccc3)c3cn(CCCN4CCCC4)nn3)cc2c1Nc1ccc(F)c(Cl)c1 [Example 545, (S)-8-chloro-4-((3-chloro-4-fluorophenyl)amino)-6-((phenyl (1-(3-(pyrrolidin-1-yl)propyl)-1H-1,2,3-triazol-4-yl)methyl)amino)quinoline-3-carbonitrile]
6.70 | 8.10 | N#Cc1cnc2c(Cl)cc(N[C@@H](c3ccccc3)c3cn(CCN4CCCC4)nn3)cc2c1Nc1ccc(F)c(Cl)c1 [Example 546, (S)-8-chloro-4-((3-chloro-4-fluorophenyl)amino)-6-((phenyl (1-(2-(pyrrolidin-1-yl)ethyl)-1H-1,2,3-triazol-4-yl)methyl)amino)quinoline-3-carbonitrile]
6.29 | 8.70 | CC(C)n1cc([C@@H](Nc2cc(Cl)c3ncc(C#N)c(Nc4ccc(F)c(Cl)c4)c3c2)c2cccc(N3CCCCC3=O)c2)nn1 [Example 547, (S)-8-chloro-4-((3-chloro-4-fluorophenyl)amino)-6-(((1-isopropyl-1H-1,2,3-triazol-4-yl) (3-(2-oxopiperidin-1-yl)phenyl)methyl)amino) quinoline-3-carbonitrile]
7.40 | 9.00 | CC(C)(C)N1CCC(n2cc([C@@H](Nc3cc(Cl)c4ncc(C#N)c(Nc5ccc(F)c(Cl)c5)c4c3)c3cccc(N4CCCCC4=O)c3)nn2)CC1 [Example 548, (S)-6-(((1-(1-(tert-butyl)piperidin-4-yl)-1H-1,2,3-triazol-4-yl)(3-(2-oxopiperidin-1-yl)phenyl)methyl)amino)-8-chloro-4-((3-chloro-4-fluorophenyl)amino)quinoline-3-carbonitrile]
6.19 | 8.52 | CC(C)n1cc([C@@H](Nc2cc(Cl)c3ncc(C#N)c(Nc4ccc(F)c(Cl)c4)c3c2)c2cccc(N3CCCC3=O)c2)nn1 [Example 549, (S)-8-chloro-4-((3-chloro-4-fluorophenyl)amino)-6-(((1-isopropyl-1H-1,2,3-triazol-4-yl) (3-(2-oxopyrrolidin-1-yl)phenyl)methyl)amino) quinoline-3-carbonitrile]
6.94 | 9.00 | CC(C)(C)N1CCC(n2cc([C@@H](Nc3cc(Cl)c4ncc(C#N)c(Nc5ccc(F)c(Cl)c5)c4c3)c3cccc(N4CCCC4=O)c3)nn2)CC1 [Example 550, (S)-6-(((1-(1-(tert-butyl)piperidin-4-yl)-1H-1,2,3-triazol-4-yl)(3-(2-oxopyrrolidin-1-yl)phenyl)methyl)amino)-8-chloro-4-((3-chloro-4-fluorophenyl)amino)quinoline-3-carbonitrile]
6.32 | 8.30 | CC(C)n1cc([C@@H](Nc2cc(Cl)c3ncc(C#N)c(Nc4ccc(F)c(Cl)c4)c3c2)c2cccc(N3CCC3=O)c2)nn1 [Example 551, (S)-8-chloro-4-((3-chloro-4-fluorophenyl)amino)-6-(((1-isopropyl-1H-1,2,3-triazol-4-yl)(3-(2-oxoazetidin-1-yl)phenyl)methyl)amino)quinoline-3-carbonitrile]
6.87 | 8.30 | CC(C)(C)N1CCC(n2cc([C@@H](Nc3cc(Cl)c4ncc(C#N)c(Nc5ccc(F)c(Cl)c5)c4c3)c3cccc(N4CCC4=O)c3)nn2)CC1 [Example 552, (S)-6-(((1-(1-(tert-butyl)piperidin-4-yl)-1H-1,2,3-triazol-4-yl)(3-(2-oxoazetidin-1-yl)phenyl)methyl)amino)-8-chloro-4-((3-chloro-4-fluorophenyl)amino)quinoline-3-carbonitrile]
6.37 | 8.00 | CC(C)[C@@H](Nc1c(C#N)cnc2c(Cl)cc(N[C@@H](c3ccccc3)c3cn(C4CCN(C(C)(C)C)CC4)nn3)cc12)c1ccccc1 [Example 553, 6-(((S)-(1-(1-(tert-butyl)piperidin-4-yl)-1H-1,2,3-triazol-4-yl)(phenyl)methyl)amino)-8-chloro-4-(((R)-2-methyl-1-phenylpropyl)amino)quinoline-3-carbonitrile]
5.08 | 5.89 | COCCNc1c(C#N)cnc2c(Cl)cc(N[C@@H](c3ccccc3)c3cn(C4CCN(C(C)(C)C)CC4)nn3)cc12 [Example 554, (S)-6-(((1-(1-(tert-butyl)piperidin-4-yl)-1H-1,2,3-triazol-4-yl)(phenyl)methyl)amino)-8-chloro-4-((2-methoxyethyl)amino)quinoline-3-carbonitrile]
6.27 | 6.74 | CC(C)(O)CNc1c(C#N)cnc2c(Cl)cc(N[C@@H](c3ccccc3)c3cn(C4CCN(C(C)(C)C)CC4)nn3)cc12 [Example 555, (S)-6-(((1-(1-(tert-butyl)piperidin-4-yl)-1H-1,2,3-triazol-4-yl)(phenyl)methyl)amino)-8-chloro-4-((2-hydroxy-2-methylpropyl)amino)quinoline-3-carbonitrile]
< 5.00 | 6.14 | COC[C@@H](C)Nc1c(C#N)cnc2c(Cl)cc(N[C@@H](c3ccccc3)c3cn(C4CCN(C(C)(C)C)CC4)nn3)cc12 [Example 556, 6-(((S)-(1-(1-(tert-butyl)piperidin-4-yl)-1H-1,2,3-triazol-4-yl)(phenyl)methyl)amino)-8-chloro-4-(((R)-1-methoxypropan-2-yl)amino) quinoline-3-carbonitrile]
< 5.00 | 6.00 | COC[C@H](C)Nc1c(C#N)cnc2c(Cl)cc(N[C@@H](c3ccccc3)c3cn(C4CCN(C(C)(C)C)CC4)nn3)cc12 [Example 557, 6-(((S)-(1-(1-(tert-butyl)piperidin-4-yl)-1H-1,2,3-triazol-4-yl)(phenyl)methyl)amino)-8-chloro-4-(((S)-1-methoxypropan-2-yl)amino)quinoline-3-carbonitrile]
6.70 | 7.96 | CCC[C@@H](Nc1c(C#N)cnc2c(Cl)cc(N[C@@H](c3ccccc3)c3cn(C4CCN(C(C)(C)C)CC4)nn3)cc12)c1ccccc1 [Example 558, 6-(((S)-(1-(1-(tert-butyl)piperidin-4-yl)-1H-1,2,3-triazol-4-yl)(phenyl)methyl)amino)-8-chloro-4-(((R)-1-phenylbutyl)amino)quinoline-3-carbonitrile]
5.22 | 7.85 | CC[C@@H](Nc1c(C#N)cnc2c(Cl)cc(N[C@@H](c3cccc(C(=O)N4CC(OC)C4)c3)c3c[nH]nn3)cc12)c1ccccc1 [Example 559, 8-chloro-6-(((S)-(3-(3-methoxyazetidine-1-carbonyl)phenyl)(1H-1,2,3-triazol-4-yl)methyl)amino)-4-(((R)-1-phenylpropyl)amino)quinoline-3-carbonitrile]
5.05 | 8.52 | CC[C@@H](Nc1c(C#N)cnc2c(Cl)cc(N[C@@H](c3cccc(C(=O)N4CC(O)C4)c3)c3c[nH]nn3)cc12)c1ccccc1 [Example 560]
5.94 | 8.22 | CC[C@@H](Nc1c(C#N)cnc2c(Cl)cc(N[C@@H](c3cccc(C(=O)N4CC(F)(F)C4)c3)c3c[nH]nn3)cc12)c1ccccc1 [Example 561, 8-chloro-6-(((S)-(3-(3,3-difluoroazetidine-1-carbonyl)phenyl)(1H-1,2,3-triazol-4-yl)methyl)amino)-4-(((R)-1-phenylpropyl)amino)quinoline-3-carbonitrile]
